Laboratory results as given in the NIST ThermoML archive (doi:10.1021/je034087q).

Test: xn = mol fraction of the nth substance listed

CC(C)=O [acetone] + O=C=O
Settings | mass density [kg/m3]
328.15 K, 12970 kPa, Fluid (supercritical or subcritical phases), x2 = 0.902 | 737
328.15 K, 13310 kPa, Fluid (supercritical or subcritical phases), x2 = 0.902 | 739
328.15 K, 13640 kPa, Fluid (supercritical or subcritical phases), x2 = 0.902 | 748
328.15 K, 13900 kPa, Fluid (supercritical or subcritical phases), x2 = 0.902 | 748
328.15 K, 14180 kPa, Fluid (supercritical or subcritical phases), x2 = 0.902 | 754
328.15 K, 14600 kPa, Fluid (supercritical or subcritical phases), x2 = 0.902 | 758
328.15 K, 14820 kPa, Fluid (supercritical or subcritical phases), x2 = 0.902 | 761
328.15 K, Liquid, Other PVT measurement, x2 = 0.902 | 626
333.15 K, 9750 kPa, Fluid (supercritical or subcritical phases), x2 = 0.902 | 573
333.15 K, 9830 kPa, Fluid (supercritical or subcritical phases), x2 = 0.902 | 579
333.15 K, 9880 kPa, Fluid (supercritical or subcritical phases), x2 = 0.902 | 582
333.15 K, 9920 kPa, Fluid (supercritical or subcritical phases), x2 = 0.902 | 585
333.15 K, 9990 kPa, Fluid (supercritical or subcritical phases), x2 = 0.902 | 590
333.15 K, 10050 kPa, Fluid (supercritical or subcritical phases), x2 = 0.902 | 594
333.15 K, 10100 kPa, Fluid (supercritical or subcritical phases), x2 = 0.902 | 599
333.15 K, 10180 kPa, Fluid (supercritical or subcritical phases), x2 = 0.902 | 603
333.15 K, 10250 kPa, Fluid (supercritical or subcritical phases), x2 = 0.902 | 607
333.15 K, 10320 kPa, Fluid (supercritical or subcritical phases), x2 = 0.902 | 610
333.15 K, 10380 kPa, Fluid (supercritical or subcritical phases), x2 = 0.902 | 614
333.15 K, 10500 kPa, Fluid (supercritical or subcritical phases), x2 = 0.902 | 619
333.15 K, 10610 kPa, Fluid (supercritical or subcritical phases), x2 = 0.902 | 626
333.15 K, 10750 kPa, Fluid (supercritical or subcritical phases), x2 = 0.902 | 631
333.15 K, 10850 kPa, Fluid (supercritical or subcritical phases), x2 = 0.902 | 636
333.15 K, 10920 kPa, Fluid (supercritical or subcritical phases), x2 = 0.902 | 641
333.15 K, 11080 kPa, Fluid (supercritical or subcritical phases), x2 = 0.902 | 646
333.15 K, 11170 kPa, Fluid (supercritical or subcritical phases), x2 = 0.902 | 650
333.15 K, 11280 kPa, Fluid (supercritical or subcritical phases), x2 = 0.902 | 654
333.15 K, 11490 kPa, Fluid (supercritical or subcritical phases), x2 = 0.902 | 660
333.15 K, 11690 kPa, Fluid (supercritical or subcritical phases), x2 = 0.902 | 666
333.15 K, 11820 kPa, Fluid (supercritical or subcritical phases), x2 = 0.902 | 671
333.15 K, 12000 kPa, Fluid (supercritical or subcritical phases), x2 = 0.902 | 676
333.15 K, 12230 kPa, Fluid (supercritical or subcritical phases), x2 = 0.902 | 682
333.15 K, 12390 kPa, Fluid (supercritical or subcritical phases), x2 = 0.902 | 687
333.15 K, 12560 kPa, Fluid (supercritical or subcritical phases), x2 = 0.902 | 690
333.15 K, 12840 kPa, Fluid (supercritical or subcritical phases), x2 = 0.902 | 697
333.15 K, 13010 kPa, Fluid (supercritical or subcritical phases), x2 = 0.902 | 700
333.15 K, 13280 kPa, Fluid (supercritical or subcritical phases), x2 = 0.902 | 705
333.15 K, 13630 kPa, Fluid (supercritical or subcritical phases), x2 = 0.902 | 711
333.15 K, 13800 kPa, Fluid (supercritical or subcritical phases), x2 = 0.902 | 716
333.15 K, 13980 kPa, Fluid (supercritical or subcritical phases), x2 = 0.902 | 719
333.15 K, 14280 kPa, Fluid (supercritical or subcritical phases), x2 = 0.902 | 723
333.15 K, 14460 kPa, Fluid (supercritical or subcritical phases), x2 = 0.902 | 726
333.15 K, 14830 kPa, Fluid (supercritical or subcritical phases), x2 = 0.902 | 733
333.15 K, Liquid, Other PVT measurement, x2 = 0.902 | 570
335.15 K, 9800 kPa, Fluid (supercritical or subcritical phases), x2 = 0.909 | 532
335.15 K, 9820 kPa, Fluid (supercritical or subcritical phases), x2 = 0.909 | 535
335.15 K, 9860 kPa, Fluid (supercritical or subcritical phases), x2 = 0.909 | 539
335.15 K, 9900 kPa, Fluid (supercritical or subcritical phases), x2 = 0.909 | 543
335.15 K, 9940 kPa, Fluid (supercritical or subcritical phases), x2 = 0.909 | 548
335.15 K, 10000 kPa, Fluid (supercritical or subcritical phases), x2 = 0.909 | 551
335.15 K, 10050 kPa, Fluid (supercritical or subcritical phases), x2 = 0.909 | 558
335.15 K, 10100 kPa, Fluid (supercritical or subcritical phases), x2 = 0.909 | 562
335.15 K, 10160 kPa, Fluid (supercritical or subcritical phases), x2 = 0.909 | 567
335.15 K, 10220 kPa, Fluid (supercritical or subcritical phases), x2 = 0.909 | 572
335.15 K, 10280 kPa, Fluid (supercritical or subcritical phases), x2 = 0.909 | 578
